Results reported in patent US20260092071A1, “COMPOUNDS AND COMPOSITIONS AS SMARCA2/4 DEGRADERS AND USES THEREOF” (REGENTS OF THE UNIVERSITY OF MICHIGAN, priority 2022, published 2026).

Assays:
SMARCA4 = SMARCA4 (Homo sapiens, UniProt P51532); assay: HiBit assay in engineered HT1080 CRISPR knock-in cell, 6 hrs (B series), SMARCA4; assay type: cell-based; conditions: 6 hrs incubation; for DC50 / SMARC A4 HT1080 HiBit Dmax(%): HT1080 CRISPR knock-in cells; for DC50: read-out: SMARC A4 HT1080 HiBit DC50; for Dmax: HT-1080, HT1080 CRISPR knock-in cells, read-out: SMARC A4 HT1080 HiBit Dmax(%)
Chain of SMARCA4 (P51532 whole entry): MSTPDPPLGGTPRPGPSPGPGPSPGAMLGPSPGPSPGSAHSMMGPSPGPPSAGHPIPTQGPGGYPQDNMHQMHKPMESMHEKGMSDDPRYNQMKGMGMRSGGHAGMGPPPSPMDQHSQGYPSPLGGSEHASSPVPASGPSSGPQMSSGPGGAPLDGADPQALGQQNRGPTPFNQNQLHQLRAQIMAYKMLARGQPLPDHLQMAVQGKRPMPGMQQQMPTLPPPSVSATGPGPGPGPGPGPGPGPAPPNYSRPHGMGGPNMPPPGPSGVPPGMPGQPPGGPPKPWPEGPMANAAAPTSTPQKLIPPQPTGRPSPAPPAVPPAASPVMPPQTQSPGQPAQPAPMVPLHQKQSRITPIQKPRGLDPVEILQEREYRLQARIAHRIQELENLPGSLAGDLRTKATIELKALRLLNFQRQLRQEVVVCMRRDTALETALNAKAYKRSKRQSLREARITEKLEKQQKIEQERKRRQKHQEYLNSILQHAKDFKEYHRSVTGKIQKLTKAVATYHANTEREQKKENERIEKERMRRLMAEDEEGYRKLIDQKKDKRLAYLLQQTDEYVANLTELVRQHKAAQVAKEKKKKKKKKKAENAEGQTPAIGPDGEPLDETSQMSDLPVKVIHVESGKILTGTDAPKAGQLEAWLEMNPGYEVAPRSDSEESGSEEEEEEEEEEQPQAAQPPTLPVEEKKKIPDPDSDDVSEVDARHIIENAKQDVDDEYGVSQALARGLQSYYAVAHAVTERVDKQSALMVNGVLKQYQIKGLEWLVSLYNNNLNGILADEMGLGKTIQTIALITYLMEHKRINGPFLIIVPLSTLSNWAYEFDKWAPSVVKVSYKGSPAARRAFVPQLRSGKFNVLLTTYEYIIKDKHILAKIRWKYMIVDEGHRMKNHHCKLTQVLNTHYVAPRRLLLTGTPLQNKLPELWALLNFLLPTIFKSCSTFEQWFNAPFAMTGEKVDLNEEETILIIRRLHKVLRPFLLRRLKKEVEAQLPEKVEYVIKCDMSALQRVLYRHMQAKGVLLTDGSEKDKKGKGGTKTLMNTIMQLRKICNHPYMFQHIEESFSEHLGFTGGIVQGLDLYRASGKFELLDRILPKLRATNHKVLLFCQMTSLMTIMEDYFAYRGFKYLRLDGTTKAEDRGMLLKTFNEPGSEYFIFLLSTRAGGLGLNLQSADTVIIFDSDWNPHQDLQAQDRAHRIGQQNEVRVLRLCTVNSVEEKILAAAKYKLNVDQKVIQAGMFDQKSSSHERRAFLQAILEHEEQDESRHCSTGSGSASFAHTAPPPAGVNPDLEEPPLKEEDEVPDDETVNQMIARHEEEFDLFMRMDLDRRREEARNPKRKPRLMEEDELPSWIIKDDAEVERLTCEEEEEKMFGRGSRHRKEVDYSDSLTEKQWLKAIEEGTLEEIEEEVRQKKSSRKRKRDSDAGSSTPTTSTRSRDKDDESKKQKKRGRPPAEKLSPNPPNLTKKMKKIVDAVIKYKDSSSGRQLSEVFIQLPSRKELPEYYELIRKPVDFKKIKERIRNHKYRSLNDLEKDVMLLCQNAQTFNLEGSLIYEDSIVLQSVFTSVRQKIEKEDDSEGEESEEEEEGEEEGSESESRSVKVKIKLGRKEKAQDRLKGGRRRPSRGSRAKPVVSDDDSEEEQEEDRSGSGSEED
How it was run: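 Compounds were dispensed first, then HT1080 knock-in cells added and incubated for 6 hrs at 37° C. Next, detection reagent containing LgBiT and lytic substrate was added. Plates were shaken 10 min and centrifuged, and luminescence was measured.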

SMARCA2 = SMARCA2 (Homo sapiens, UniProt P51531); assay: HiBit assay in engineered HT1080 CRISPR knock-in cell, 6 hrs (B series), SMARCA2; assay type: cell-based; conditions: 6 hrs incubation; for DC50 / SMARC A2 HT1080 HiBit Dmax (%): HT1080 CRISPR knock-in cells; for DC50: read-out: SMARC A2 HT1080 HiBit DC50; for Dmax: HT-1080, HT1080 CRISPR knock-in cells, read-out: SMARC A2 HT1080 HiBit Dmax (%)
Chain of SMARCA2 (P51531 whole entry): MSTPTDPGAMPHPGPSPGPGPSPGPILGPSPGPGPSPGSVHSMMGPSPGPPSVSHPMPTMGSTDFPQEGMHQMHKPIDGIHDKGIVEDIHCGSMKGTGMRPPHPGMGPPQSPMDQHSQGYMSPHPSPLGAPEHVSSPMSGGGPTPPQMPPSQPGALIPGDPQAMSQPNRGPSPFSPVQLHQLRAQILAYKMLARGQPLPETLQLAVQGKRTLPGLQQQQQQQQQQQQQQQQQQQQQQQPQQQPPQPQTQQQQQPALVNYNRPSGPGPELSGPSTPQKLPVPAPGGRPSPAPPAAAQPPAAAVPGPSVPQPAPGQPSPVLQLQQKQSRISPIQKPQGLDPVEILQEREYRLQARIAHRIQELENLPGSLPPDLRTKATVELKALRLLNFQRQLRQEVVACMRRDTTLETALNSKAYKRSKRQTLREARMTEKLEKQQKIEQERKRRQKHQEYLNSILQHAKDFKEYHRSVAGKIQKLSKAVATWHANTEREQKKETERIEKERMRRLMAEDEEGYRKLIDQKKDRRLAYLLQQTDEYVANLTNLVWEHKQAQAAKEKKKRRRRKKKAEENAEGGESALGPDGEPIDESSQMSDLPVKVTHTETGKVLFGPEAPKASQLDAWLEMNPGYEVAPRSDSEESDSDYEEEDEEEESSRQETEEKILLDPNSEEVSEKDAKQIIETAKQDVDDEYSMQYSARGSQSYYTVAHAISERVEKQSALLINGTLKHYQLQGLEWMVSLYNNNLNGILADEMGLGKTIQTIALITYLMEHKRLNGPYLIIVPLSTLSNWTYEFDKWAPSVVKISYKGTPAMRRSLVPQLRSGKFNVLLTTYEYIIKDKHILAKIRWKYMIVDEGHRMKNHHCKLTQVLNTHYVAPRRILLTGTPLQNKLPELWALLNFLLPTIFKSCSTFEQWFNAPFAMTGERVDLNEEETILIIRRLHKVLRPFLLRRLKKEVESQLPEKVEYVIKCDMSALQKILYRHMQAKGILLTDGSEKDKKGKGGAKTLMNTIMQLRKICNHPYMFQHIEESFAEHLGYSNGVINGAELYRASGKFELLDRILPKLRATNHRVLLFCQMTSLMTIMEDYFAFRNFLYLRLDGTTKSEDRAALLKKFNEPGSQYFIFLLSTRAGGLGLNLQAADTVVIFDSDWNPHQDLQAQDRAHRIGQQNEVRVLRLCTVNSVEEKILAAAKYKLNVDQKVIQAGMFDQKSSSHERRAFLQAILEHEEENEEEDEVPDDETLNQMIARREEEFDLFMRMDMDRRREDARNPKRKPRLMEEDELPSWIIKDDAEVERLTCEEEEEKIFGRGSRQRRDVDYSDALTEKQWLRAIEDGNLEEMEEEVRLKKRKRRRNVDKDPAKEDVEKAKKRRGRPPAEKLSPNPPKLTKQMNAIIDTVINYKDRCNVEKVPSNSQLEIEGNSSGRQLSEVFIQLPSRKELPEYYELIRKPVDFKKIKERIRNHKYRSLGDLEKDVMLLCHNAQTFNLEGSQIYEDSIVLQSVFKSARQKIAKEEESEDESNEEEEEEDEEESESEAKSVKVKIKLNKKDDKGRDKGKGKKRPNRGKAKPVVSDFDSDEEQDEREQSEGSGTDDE
How it was run: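 Remaining SMARCA2 protein measured as HiBiT luminescence after cell lysis with LgBiT plus lytic substrate. Engineered HT1080 knock-in cells (2000/well) were first treated 6 h at 37 °C with compound at a final 0.1% DMSO.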

Row | DC50 (SMARCA4) | Dmax (SMARCA4) | DC50 (SMARCA2) | Dmax (SMARCA2) | SMARC A4 HT1080 HiBit Dmax(%) (SMARCA4) | SMARC A2 HT1080 HiBit Dmax (%) (SMARCA2) | SMILES
1 | > 1000 nM | < 50% | < 100 nM | 70 to 90% | – | – | Cc1ncsc1-c1ccc([C@H](C)NC(=O)[C@@H]2C[C@@H](O)CN2C(=O)[C@H](C(C)C)n2cc(CN3CCC(c4ccc5c(c4)-n4c(nc(=O)c6c(Cl)cccc64)C5(C)C)CC3)nn2)cc1 [Compound B49, (2S,4R)-1-((S)-2-(4-((4-(4-chloro-7,7-dimethyl-5-oxo-5,7-dihydroindolo[1,2-a]quinazolin-10-yl)piperidin-1-yl)methyl)-1H-1,2,3-triazol-1-yl)-3-methylbutanoyl)-4-hydroxy-N-((S)-1-(4-(4-methylthiazol-5-yl)phenyl)ethyl)pyrrolidine-2-carboxamide]
2 | < 100 nM | > 90% | < 100 nM | > 90% | – | – | Cc1ncsc1-c1ccc([C@H](CCCCCN2CCC(c3ccc4c(c3)-n3c(nc(=O)c5c(Cl)cccc53)C4(C)C)CC2)NC(=O)[C@@H]2C[C@@H](O)CN2C(=O)[C@@H](NC(=O)C2(F)CC2)C(C)(C)C)cc1 [Compound B21, (2S,4R)-N-((S)-6-(4-(4-chloro-7,7-dimethyl-5-oxo-5,7-dihydroindolo[1,2-a]quinazolin-10-yl)piperidin-1-yl)-1-(4-(4-methylthiazol-5-yl)phenyl)hexyl)-1-((S)-2-(1-fluorocyclopropane-1-carboxamido)-3,3-dimethylbutanoyl)-4-hydroxypyrrolidine-2-carboxamide]
3 | < 100 nM | 70 to 90% | < 100 nM | > 90% | – | – | Cc1ncsc1-c1ccc([C@H](C)NC(=O)[C@@H]2C[C@@H](O)CN2C(=O)[C@H](C(C)C)n2cc(CCCN3CCC(c4ccc5c(c4)-n4c(nc(=O)c6c(Cl)cccc64)C5(C)C)CC3)nn2)cc1 [Compound B58, (2S,4R)-1-((S)-2-(4-(3-(4-(4-chloro-7,7-dimethyl-5-oxo-5,7-dihydroindolo[1,2-a]quinazolin-10-yl)piperidin-1-yl)propyl)-1H-1,2,3-triazol-1-yl)-3-methylbutanoyl)-4-hydroxy-N-((S)-1-(4-(4-methylthiazol-5-yl)phenyl)ethyl)pyrrolidine-2-carboxamide]
4 | > 1000 nM | < 50% | 100 to 500 nM | 70 to 90% | – | – | Cc1ncsc1-c1ccc2c(NC(=O)[C@@H]3C[C@@H](O)CN3C(=O)[C@@H](n3cc([C@H]4CC[C@H](CN5CCC(c6ccc7c(c6)-n6c(nc(=O)c8c(Cl)cccc86)C7(C)C)CC5)CC4)nn3)C(C)(C)C)nccc2c1 [Compound B143, (2S,4R)-1-((S)-2-(4-((1r,4S)-4-((4-(4-chloro-7,7-dimethyl-5-oxo-5,7-dihydroindolo[1,2-a]quinazolin-10-yl)piperidin-1-yl)methyl)cyclohexyl)-1H-1,2,3-triazol-1-yl)-3,3-dimethylbutanoyl)-4-hydroxy-N-(6-(4-methylthiazol-5-yl)isoquinolin-1-yl)pyrrolidine-2-carboxamide]
5 | < 100 nM | 70 to 90% | < 100 nM | > 90% | – | – | C[C@H](NC(=O)[C@@H]1C[C@@H](O)CN1C(=O)[C@@H](n1cc([C@H]2CC[C@H](CN3CCN(c4ccc5c(c4)-n4c(nc(=O)c6c(Cl)cccc64)C5(C)C)CC3)CC2)nn1)C(C)(C)C)c1ccc(-c2scnc2C#CCN2CCOCC2)cc1 [Compound B135, (2S,4R)-1-((S)-2-(4-((1r,4S)-4-((4-(4-chloro-7,7-dimethyl-5-oxo-5,7-dihydroindolo[1,2-a]quinazolin-10-yl)piperazin-1-yl)methyl)cyclohexyl)-1H-1,2,3-triazol-1-yl)-3,3-dimethylbutanoyl)-4-hydroxy-N-((S)-1-(4-(4-(3-morpholinoprop-1-yn-1-yl)thiazol-5-yl)phenyl)ethyl)pyrrolidine-2-carboxamide]
6 | < 100 nM | > 90% | < 100 nM | > 90% | – | – | Cc1ncsc1-c1ccc([C@H](C)NC(=O)[C@@H]2C[C@@H](O)CN2C(=O)C(c2cc(CCN3CCC(c4ccc5c(c4)C(C)(C)c4nc(=O)c6c(Cl)cccc6n4-5)CC3)no2)C(C)C)cc1 (stereo partly drawn) [Compound B15, (2S,4R)-1-(2-(3-(2-(4-(4-chloro-7,7-dimethyl-5-oxo-5,7-dihydroindolo[1,2-a]quinazolin-9-yl)piperidin-1-yl)ethyl)isoxazol-5-yl)-3-methylbutanoyl)-4-hydroxy-N-((S)-1-(4-(4-methylthiazol-5-yl)phenyl)ethyl)pyrrolidine-2-carboxamide]
7 | 501 to 1000 nM | 50 to 69% | 100 to 500 nM | 50 to 69% | – | – | Cc1cc([C@H](C(=O)N2C[C@H](O)C[C@H]2C(=O)N[C@@H](C)c2ccc(-c3scnc3C(=O)NCCCCOCCN3CCC(c4ccc5c(c4)-n4c(nc(=O)c6c(Cl)cccc64)C5(C)C)CC3)cc2)C(C)C)on1 [Compound B147, N-(4-(2-(4-(4-chloro-7,7-dimethyl-5-oxo-5,7-dihydroindolo[1,2-a]quinazolin-10-yl)piperidin-1-yl)ethoxy)butyl)-5-(4-((S)-1-((2S,4R)-4-hydroxy-1-((R)-3-methyl-2-(3-methylisoxazol-5-yl)butanoyl)pyrrolidine-2-carboxamido)ethyl)phenyl)thiazole-4-carboxamide]
8 | 501 to 1000 nM | < 50% | 100 to 500 nM | 70 to 90% | – | – | Cc1ncsc1-c1ccc([C@H](C)NC(=O)[C@@H]2C[C@@H](O)CN2C(=O)[C@H](C(C)C)n2cc(OCCN3CCC(c4ccc5c(c4)C(C)(C)c4nc(=O)c6c(Cl)cccc6n4-5)CC3)cn2)cc1 [Compound B57, (2S,4R)-1-(2-(4-(2-(4-(4-chloro-7,7-dimethyl-5-oxo-5,7-dihydroindolo[1,2-a]quinazolin-9-yl)piperidin-1-yl)ethoxy)-1H-pyrazol-1-yl)-3-methylbutanoyl)-4-hydroxy-N—((S)-1-(4-(4-methylthiazol-5-yl)phenyl)ethyl)pyrrolidine-2-carboxamide]
9 | < 100 nM | < 50% | 100 to 500 nM | < 50% | – | – | Cc1ncsc1-c1ccc2c(NC(=O)[C@@H]3C[C@@H](O)CN3C(=O)[C@@H](n3cc([C@H]4CC[C@H](CN5CCC(c6ccc7c(c6)-n6c(nc(=O)c8c(Cl)cccc86)C7(C)C)CC5)CC4)nn3)C(C)(C)C)n[nH]c2c1 [Compound B148, (2S,4R)-1-((S)-2-(4-((1r,4S)-4-((4-(4-chloro-7,7-dimethyl-5-oxo-5,7-dihydroindolo[1,2-a]quinazolin-10-yl)piperidin-1-yl)methyl)cyclohexyl)-1H-1,2,3-triazol-1-yl)-3,3-dimethylbutanoyl)-4-hydroxy-N-(6-(4-methylthiazol-5-yl)-1H-indazol-3-yl)pyrrolidine-2-carboxamide]
10 | > 1000 nM | < 50% | 100 to 500 nM | 50 to 69% | – | – | Cc1ncsc1-c1ccc([C@H](C)NC(=O)[C@@H]2C[C@@H](O)CN2C(=O)[C@@H](NC(=O)CCN2CCC(c3ccc4c(c3)-n3c(nc(=O)c5c(Cl)cccc53)C4(C)C)CC2)C(C)(C)C)cc1 [Compound B43, (2S,4R)-1-((S)-2-(3-(4-(4-chloro-7,7-dimethyl-5-oxo-5,7-dihydroindolo[1,2-a]quinazolin-10-yl)piperidin-1-yl)propanamido)-3,3-dimethylbutanoyl)-4-hydroxy-N—((S)-1-(4-(4-methylthiazol-5-yl)phenyl)ethyl)pyrrolidine-2-carboxamide]
11 | 100 to 500 nM | – | 100 to 500 nM | – | B (B (70-90% degradation)) | B (B (70-90% degradation)) | Cc1cc(C(C(=O)N2C[C@H](O)C[C@H]2C(=O)N[C@@H](CCN2CCC(c3cccc4c3C(C)(C)c3nc(=O)c5c(Cl)cccc5n3-4)CC2)c2ccc(-c3scnc3C)cc2)C(C)C)on1 (stereo partly drawn) [Compound B166, (2S,4R)-N-((S)-3-(4-(4-chloro-7,7-dimethyl-5-oxo-5,7-dihydroindolo[1,2-a]quinazolin-8-yl)piperidin-1-yl)-1-(4-(4-methylthiazol-5-yl)phenyl)propyl)-4-hydroxy-1-(3-methyl-2-(3-methylisoxazol-5-yl)butanoyl)pyrrolidine-2-carboxamide]
12 | 100 to 500 nM | – | 100 to 500 nM | – | D (D (<50% degradation)) | B (B (70-90% degradation)) | CC(C)C(C(=O)N1C[C@H](O)C[C@H]1C(=O)N[C@@H](C)c1ccc(-c2ncnn2C)cc1)c1cc(OCCN2CCC(c3ccc4c(c3)C(C)(C)c3nc(=O)c5c(Cl)cccc5n3-4)CC2)no1 (stereo partly drawn) [Compound B75, (2S,4R)-1-(2-(3-(2-(4-(4-chloro-7,7-dimethyl-5-oxo-5,7-dihydroindolo[1,2-a]quinazolin-9-yl)piperidin-1-yl)ethoxy)isoxazol-5-yl)-3-methylbutanoyl)-4-hydroxy-N-((S)-1-(4-(1-methyl-1H-1,2,4-triazol-5-yl)phenyl)ethyl)pyrrolidine-2-carboxamide]
13 | < 100 nM | 70 to 90% | < 100 nM | > 90% | – | – | Cc1ncsc1-c1ccc([C@H](C)NC(=O)[C@@H]2C[C@@H](O)CN2C(=O)[C@@H](c2cc(OC3CCC(CN4CCC(c5ccc6c(c5)-n5c(nc(=O)c7c(Cl)cccc75)C6(C)C)CC4)CC3)no2)C(C)C)cc1 (stereo partly drawn) [Compound B38, (2S,4R)-1-((R)-2-(3-((4-((4-(4-chloro-7,7-dimethyl-5-oxo-5,7-dihydroindolo[1,2-a]quinazolin-10-yl)piperidin-1-yl)methyl)cyclohexyl)oxy)isoxazol-5-yl)-3-methylbutanoyl)-4-hydroxy-N-((S)-1-(4-(4-methylthiazol-5-yl)phenyl)ethyl)pyrrolidine-2-carboxamide]
